Assay results from article PMC4033217, “Characterization of Novel PI3Kδ Inhibitors as Potential Therapeutics for SLE and Lupus Nephritis in Pre-Clinical Studies” (Frontiers in Immunology, 2014).
pIC50: −log10 of the molar value. “Also recorded” adds a separate entry of the source.

Experiments:
PI3K β = PI3K β (Homo sapiens, UniProt P42338); experiment: Scintillation proximity assay, PI3Kβ enzymatic activity; type: biochemical; details: 65 μM ATP, read-out: Enzymatic potency IC50
[1] = test system: 12 BioMAP human primary cell co-culture systems; experiment: BioMAP profiling in 12 human primary cell co-culture systems; details: any concentration (from 10 to 33.3 μM as printed), any culture system
Protocol: Overt cytotoxicity of test compounds was assessed by total cell protein staining sulforhodamine B (Sigma-Aldrich, St. Louis, MO, USA) for adherent cells, or by cell viability staining Alamar Blue (Invitrogen, Carlsbad, CA, USA) for non-adherent cells.
Overtly adverse effects of
Proliferation of PBMC (T cells) was
140 quantiﬁ ed by Alamar blue reduction and proliferation of adherent cell types was quantiﬁ ed by SRB
PBMC viability was assessed by adding Alamar blue (Invitrogen, Camarillo, CA) to PBMC
SRB was performed by removing supernatants from plates, washing plates with
Plates are washed ag ain with PBS then,
Overtly cytotoxic compounds are

[2] = Unbound plasma protein binding, human; type: in vitro ADME; details: unbound fraction
Excerpt: (§1) 36 CLint: intrinsic clearance in liver microsomes. h/m: human/mouse. Papp: apparent permeability. uPPB:
(§2) 37 unbound plasma protein binding. […]

PAK3 = PAK3 (Homo sapiens, UniProt O75914); experiment: PAK3 kinase inhibition; type: biochemical
Sequence of PAK3 (O75914 whole entry, species assumed): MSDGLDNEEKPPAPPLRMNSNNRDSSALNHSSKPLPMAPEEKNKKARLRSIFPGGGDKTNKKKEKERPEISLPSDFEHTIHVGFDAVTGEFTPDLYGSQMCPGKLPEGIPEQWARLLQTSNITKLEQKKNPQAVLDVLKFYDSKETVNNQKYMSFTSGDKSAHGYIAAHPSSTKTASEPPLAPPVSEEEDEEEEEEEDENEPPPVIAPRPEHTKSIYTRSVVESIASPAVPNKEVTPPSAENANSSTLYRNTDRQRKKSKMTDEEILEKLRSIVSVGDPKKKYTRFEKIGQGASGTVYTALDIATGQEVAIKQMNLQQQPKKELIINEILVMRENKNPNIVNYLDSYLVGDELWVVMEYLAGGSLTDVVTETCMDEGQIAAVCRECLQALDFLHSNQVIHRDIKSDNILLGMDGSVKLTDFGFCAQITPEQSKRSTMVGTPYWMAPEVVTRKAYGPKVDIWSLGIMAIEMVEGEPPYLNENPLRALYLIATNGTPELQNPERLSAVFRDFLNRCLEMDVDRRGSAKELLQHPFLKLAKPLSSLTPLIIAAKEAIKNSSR

Caco-2 permeability = type: in vitro ADME; details: human
Excerpt: as §1, §2

[3] = test system: CD69 on CD19+ B cells, human whole blood; experiment: Anti-IgM-induced CD69 in human whole blood; type: cell-based; details: B-cell, healthy donors, 18 h, read-out: IC50 anti-IgM-induced CD69 up-regulation
Excerpt: After red blood cells lysis, CD19^+ cells were gated for CD69 analysis.

CD19+ B cells = experiment: B cell proliferation assay (anti-IgM + IL-4, [3H]thymidine); type: cell-based, human; details: for pIC50: anti-IgM and IL-4, 4 days
Protocol: CD19^+ B cells were isolated from PBMC of healthy volunteers by negative selection using the B cell purification kit II (Miltenyi Biotech, Bergisch Gladbach, Germany) and following manufacturer’s instructions. […] Proliferation was assessed by a multiplate beta counter (Perkin Elmer, Shelton, CT, USA).

[4] = test system: pAkt in CD19+ B cells, human whole blood; experiment: Anti-IgM-induced pAkt in human whole blood; type: cell-based; details: B-cell, 5 min, healthy donors
Protocol: Human whole blood was incubated with PI3Kδ inhibitors for 30 min and stimulated with 30 μg/ml anti-IgM (Jackson Immuno Research, West Grove, PA, USA) for 5 min at 37°C. […] Cell were stained with rabbit anti-pAkt (Ser473) followed by the Alexa647-conjugated F(ab′)2 goat anti-rabbit IgG (Invitrogen, Carlsbad, CA, USA), and anti-CD19-PE (BD Biosciences Pharmingen, San Diego, CA, USA). CD19^+ cells were gated for pAkt analysis.

[5] = test system: CD69 on CD19+ cells, PBMCs from SLE patients; experiment: Anti-IgM-induced CD69 up-regulation in PBMCs from SLE patients; type: cell-based; details: Homo sapiens, PBMC, 18 h, SLE patient PBMC, anti-IgM 18 h
Protocol: Heparinized human blood or buffy-coat prepared from healthy donors was obtained from the “Center de transfusion sanguine” of Geneva (Switzerland). Cryopreserved PBMCs from SLE patients were obtained from Asterand (Detroit, MI, USA). […] Studies were approved by Merck Serono ethics committee.
(A) Peripheral blood from healthy donors were collected in heparinized tubes and stimulated with anti-IgM for 5 min. Intracellular pAkt gated on CD19^+ cells were analyzed by flow cytometry. […] CD69 up-regulation on CD19^+ cells were analyzed by flow cytometry. Mean fluorescent intensity (MFI) from basal and stimulated conditions without inhibitor were used as 100% of activity. […]

[6] = In vivo pharmacokinetics in mouse; details: estimated
pAkt = experiment: Imax PK/PD model of BCR activation-induced pAkt response; details: mouse, estimated in vivo PD parameter (pAkt)
Excerpt: An Imax PK/PD model describing BCR activation-induced pAkt response was established using data from in vitro and ex vivo mouse whole blood assays.

PI3K δ [7] = experiment: Scintillation proximity assay, PI3Kδ enzymatic activity; type: biochemical, human
PI3K δ [8] = molecular target: PI3K δ (Homo sapiens, UniProt O00329); experiment: as above; type: biochemical; details: PI3K δ; 65 μM ATP; read-out: Enzymatic potency IC50
Sequence of PI3K δ (Homo sapiens, UniProt O00329) (O00329 whole entry): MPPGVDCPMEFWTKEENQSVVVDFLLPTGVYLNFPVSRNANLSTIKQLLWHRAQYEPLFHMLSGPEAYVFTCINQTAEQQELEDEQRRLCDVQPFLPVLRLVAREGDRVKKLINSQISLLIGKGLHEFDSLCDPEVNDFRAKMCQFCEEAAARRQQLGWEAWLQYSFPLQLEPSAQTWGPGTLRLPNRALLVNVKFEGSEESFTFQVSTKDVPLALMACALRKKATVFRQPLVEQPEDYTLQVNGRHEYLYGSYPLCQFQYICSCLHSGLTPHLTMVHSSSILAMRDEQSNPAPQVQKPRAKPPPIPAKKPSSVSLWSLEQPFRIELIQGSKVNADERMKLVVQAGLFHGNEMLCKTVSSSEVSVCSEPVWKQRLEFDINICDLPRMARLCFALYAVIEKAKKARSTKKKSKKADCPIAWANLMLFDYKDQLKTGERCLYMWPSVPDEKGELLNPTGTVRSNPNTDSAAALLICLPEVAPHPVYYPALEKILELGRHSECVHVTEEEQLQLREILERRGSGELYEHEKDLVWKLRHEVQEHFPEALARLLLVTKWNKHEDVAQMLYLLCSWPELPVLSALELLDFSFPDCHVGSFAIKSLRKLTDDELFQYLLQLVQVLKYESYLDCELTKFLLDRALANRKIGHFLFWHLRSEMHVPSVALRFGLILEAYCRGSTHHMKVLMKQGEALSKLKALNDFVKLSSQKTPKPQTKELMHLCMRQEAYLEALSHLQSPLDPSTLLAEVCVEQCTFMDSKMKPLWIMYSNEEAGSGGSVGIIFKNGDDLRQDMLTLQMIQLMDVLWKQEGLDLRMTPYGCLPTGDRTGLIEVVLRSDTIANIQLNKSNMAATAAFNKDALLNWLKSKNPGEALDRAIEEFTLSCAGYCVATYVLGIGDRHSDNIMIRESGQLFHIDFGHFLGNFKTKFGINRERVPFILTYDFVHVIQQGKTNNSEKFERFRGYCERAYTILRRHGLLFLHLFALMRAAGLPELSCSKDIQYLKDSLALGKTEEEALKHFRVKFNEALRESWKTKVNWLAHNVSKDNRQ

CD123+/CD303+ pDC cells = experiment: Plasmacytoid dendritic cell IFN-α release assay (CpG ODN 2395); type: cell-based, human
Protocol: Plasmacytoid dendritic cells were isolated from PBMC of healthy volunteers by negative selection using pDC purification kit (Miltenyi Biotech, Bergisch Gladbach, Germany). […] IFN-α in the supernatants was measured from the culture supernatants with Verikine ELISA kit (PBL Assay Science, Piscataway, NJ, USA).

PI3K α = PI3K α (Homo sapiens, UniProt P42336); experiment: Scintillation proximity assay, PI3Kα enzymatic activity; type: biochemical; details: 65 μM ATP, read-out: Enzymatic potency IC50
Sequence of PI3K α (P42336 whole entry): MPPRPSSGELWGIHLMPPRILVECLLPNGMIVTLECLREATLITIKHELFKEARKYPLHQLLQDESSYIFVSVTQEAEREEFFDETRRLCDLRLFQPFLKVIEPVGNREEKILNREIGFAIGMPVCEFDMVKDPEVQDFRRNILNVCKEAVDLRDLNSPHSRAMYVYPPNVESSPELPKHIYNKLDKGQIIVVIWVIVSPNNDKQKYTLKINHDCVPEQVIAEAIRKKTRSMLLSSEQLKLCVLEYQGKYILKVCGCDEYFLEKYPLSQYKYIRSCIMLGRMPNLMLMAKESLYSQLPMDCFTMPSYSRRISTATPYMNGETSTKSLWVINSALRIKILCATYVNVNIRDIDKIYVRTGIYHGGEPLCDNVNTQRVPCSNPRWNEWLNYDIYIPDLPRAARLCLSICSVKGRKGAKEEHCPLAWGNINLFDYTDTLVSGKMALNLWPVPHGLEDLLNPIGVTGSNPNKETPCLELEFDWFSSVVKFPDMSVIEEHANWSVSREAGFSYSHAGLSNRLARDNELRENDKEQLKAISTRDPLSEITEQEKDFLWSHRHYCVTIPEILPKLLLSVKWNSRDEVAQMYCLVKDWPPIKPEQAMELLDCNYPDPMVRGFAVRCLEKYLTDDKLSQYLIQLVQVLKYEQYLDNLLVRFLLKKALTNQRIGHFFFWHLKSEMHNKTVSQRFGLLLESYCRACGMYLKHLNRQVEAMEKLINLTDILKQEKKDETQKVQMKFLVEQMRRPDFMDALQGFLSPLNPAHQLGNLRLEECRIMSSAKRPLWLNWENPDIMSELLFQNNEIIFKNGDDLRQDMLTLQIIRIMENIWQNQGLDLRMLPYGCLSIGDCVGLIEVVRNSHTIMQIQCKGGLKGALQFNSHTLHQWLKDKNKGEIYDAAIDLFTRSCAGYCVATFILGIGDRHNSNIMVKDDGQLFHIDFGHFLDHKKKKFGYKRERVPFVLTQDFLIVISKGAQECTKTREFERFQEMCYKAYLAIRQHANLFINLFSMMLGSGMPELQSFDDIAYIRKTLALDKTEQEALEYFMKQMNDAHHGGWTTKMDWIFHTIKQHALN
Sequence of PI3K α (P27986 whole entry partner): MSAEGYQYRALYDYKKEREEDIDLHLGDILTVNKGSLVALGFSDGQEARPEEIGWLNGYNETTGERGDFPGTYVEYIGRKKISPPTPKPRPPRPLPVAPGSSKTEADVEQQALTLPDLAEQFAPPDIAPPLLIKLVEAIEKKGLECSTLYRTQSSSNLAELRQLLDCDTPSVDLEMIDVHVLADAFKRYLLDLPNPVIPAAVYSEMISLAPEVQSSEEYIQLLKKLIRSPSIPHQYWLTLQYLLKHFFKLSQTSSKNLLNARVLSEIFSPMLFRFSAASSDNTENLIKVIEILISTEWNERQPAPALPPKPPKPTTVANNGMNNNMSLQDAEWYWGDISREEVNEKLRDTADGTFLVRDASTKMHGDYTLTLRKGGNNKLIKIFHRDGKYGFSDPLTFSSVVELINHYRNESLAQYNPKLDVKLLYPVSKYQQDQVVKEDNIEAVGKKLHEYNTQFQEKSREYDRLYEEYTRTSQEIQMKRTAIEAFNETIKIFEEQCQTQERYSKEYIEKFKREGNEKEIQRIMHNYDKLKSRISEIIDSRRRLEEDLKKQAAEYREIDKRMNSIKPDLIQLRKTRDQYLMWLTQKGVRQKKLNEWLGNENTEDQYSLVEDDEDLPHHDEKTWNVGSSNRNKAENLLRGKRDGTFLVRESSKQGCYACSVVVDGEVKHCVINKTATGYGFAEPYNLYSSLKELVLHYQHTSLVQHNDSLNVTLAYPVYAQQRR

[9] = test system: panel of 278 additional kinases; experiment: Kinase selectivity profile at 10 µM; type: biochemical; details: significant inhibition = >50%, ATP at Km
B cell/PBMC co-culture = experiment: BioMAP B–T system (B cell/PBMC co-culture, anti-IgM and mild TCR stimulation); type: cell-based, human; details: 84 h
Protocol: Positively selected primary normal human CD19^+ B cells and CD4^+ T-cells were obtained from AllCells (Emeryville, CA, USA). PBMC were isolated from buffy coats (Stanford Blood Center, Stanford, CA, USA).
The levels of readout parameters were measured by ELISA ([14], [15]). Measurement values for each biomarker readout in a compound-treated sample were divided by the mean value from eight DMSO control samples (from the same plate) to generate a ratio. All ratios were then log10 transformed and plotted (BioMAP profile). Overt cytotoxicity of test compounds was assessed by total cell protein staining sulforhodamine B (Sigma-Aldrich, St. Louis, MO, USA) for adherent cells, or by cell viability staining Alamar Blue (Invitrogen, Carlsbad, CA, USA) for non-adherent cells.
This system models both T-cell-dependent B cell activation and class-switching as would occur in a germinal center, and B-cell-dependent T-cell responses, such as cytokine release ([13]).

NZB/W F1 mice = experiment: IFNα-accelerated NZB/W F1 mouse SLE model; type: in vivo
Protocol: All protocols and procedures were conducted according to German animal protection law (Tierschutzgesetz) and were approved by the local veterinarian authorities (Regierungspräsidium, Darmstadt, Germany). Ten-week-old female NZB/W F1 mice (Jackson Laboratories, Bar Harbor, ME, USA) were given a single i.v. injection of 1 × 10^8 IU/100 μl of AdV-IFN-α (adenovirus with mmIfna5_v1 insert, Biofocus, CoA.NL.09.160) in saline or left untreated (sham). Drug treatments were either initiated at 2 weeks (early intervention regimen) or 4 weeks (late intervention regimen) post AdV-IFN-α delivery until the end of the experiment (at 10 weeks). […] Serum and urine samples were collected for anti-dsDNA antibodies (by ELISA) and urinary protein creatinine ratio (UPCR) (measured by ADVIA 1800) determination, respectively, on the days indicated. Proteinuria is defined as UPCR >3.

[10] = Human PK prediction based on allometric scaling; details: data not shown
pAkt in Ramos B cells = experiment: BCR-crosslinking (anti-IgM)-induced Akt phosphorylation in Ramos cells; type: cell-based; details: Homo sapiens, 0.25 h, anti-IgM 15 min

Sequence of PI3K β (P42338 whole entry): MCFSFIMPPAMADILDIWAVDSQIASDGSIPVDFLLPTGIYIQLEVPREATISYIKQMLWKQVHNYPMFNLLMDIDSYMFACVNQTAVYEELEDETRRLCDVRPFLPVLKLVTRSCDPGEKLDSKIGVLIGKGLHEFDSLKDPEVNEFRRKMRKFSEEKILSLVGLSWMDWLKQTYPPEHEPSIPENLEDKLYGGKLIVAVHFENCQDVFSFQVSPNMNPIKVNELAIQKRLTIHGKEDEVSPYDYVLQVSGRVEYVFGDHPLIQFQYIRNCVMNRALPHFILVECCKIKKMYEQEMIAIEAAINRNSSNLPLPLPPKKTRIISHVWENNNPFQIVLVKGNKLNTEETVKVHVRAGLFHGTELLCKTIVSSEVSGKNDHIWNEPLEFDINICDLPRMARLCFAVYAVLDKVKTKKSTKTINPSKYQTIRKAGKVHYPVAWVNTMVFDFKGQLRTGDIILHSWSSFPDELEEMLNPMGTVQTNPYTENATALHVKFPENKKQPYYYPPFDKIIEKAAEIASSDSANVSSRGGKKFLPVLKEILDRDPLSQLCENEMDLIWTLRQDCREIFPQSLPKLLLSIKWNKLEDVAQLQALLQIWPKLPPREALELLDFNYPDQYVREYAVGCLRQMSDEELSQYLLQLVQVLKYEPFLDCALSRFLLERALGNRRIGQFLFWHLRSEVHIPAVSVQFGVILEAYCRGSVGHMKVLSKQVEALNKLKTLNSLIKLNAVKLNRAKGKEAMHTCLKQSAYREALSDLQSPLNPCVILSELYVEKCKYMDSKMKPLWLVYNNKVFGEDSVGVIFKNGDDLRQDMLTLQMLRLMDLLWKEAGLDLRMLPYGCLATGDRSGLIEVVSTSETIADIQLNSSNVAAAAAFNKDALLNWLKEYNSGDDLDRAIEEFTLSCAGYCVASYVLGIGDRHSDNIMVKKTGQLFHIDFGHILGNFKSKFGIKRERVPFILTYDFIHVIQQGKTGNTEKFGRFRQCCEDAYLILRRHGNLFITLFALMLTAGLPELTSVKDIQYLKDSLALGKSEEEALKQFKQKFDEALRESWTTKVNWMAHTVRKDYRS
Sequence of PI3K β (P27986 whole entry partner): as the sequence (P27986 whole entry partner) above

## O=C(c1nn([C@@H]2CCCN(CCN3CCOCC3)C2)c2c1CS(=O)(=O)c1cc(F)ccc1-2)N1CCOCC1 [MSC2364588, (R)-7-fluoro-3-(morpholin-4-ylcarbonyl)-1-[1-(2-morpholin-4-ylethyl)piperidin-3-yl]-1,4-dihydrothiochro-meno[4,3-c]pyrazole 5,5-dioxide]
PI3K β
  pIC50: 5.61
[1]
  Cytotoxicity: No signs of cytotoxicity
[2]
  uPPB %: 100%
PAK3
  pIC50: < 5.00
Caco-2 permeability
  Papp: 2.4 ×10⁻⁶ cm/s
  efflux ratio: 1.6
[3]
  pIC50: 7.68
CD19+ B cells; B cell function
  Potency relative to MSC2360844: 10 times
CD19+ B cells; Homo sapiens, B-cell, 96 h
  pIC50: 8.15
CD19+ B cells
  pIC50: 8.22
[4]
  pIC50: 7.49
[5]; another donor (Figure 4C, right)
  pIC50: 7.92
[5]; one donor (Figure 4C, left)
  pIC50: 8.05
[6]; C57BL/6N, plasma, po
  CL/F: 418 mL/min/kg
  half-life: 36 min
[6]
  Ka: 1.6 h⁻¹
  V/F: 5.8 L/kg
pAkt
  pIC50: 7.33
PI3K δ [7]; all assays, cell types and in vitro enzymatic activity
  Potency relative to MSC2360844: 5–10 times
PI3K δ [7]; enzymatic and cellular contexts
  Potency relative to MSC2360844: 10 fold
PI3K δ [8]
  pIC50: 7.82
CD123+/CD303+ pDC cells; CpG oligodeoxynucleotide-induced, TLR9-mediated
  Suppression of IFNα production by pDCs: suppressed
CD123+/CD303+ pDC cells; Homo sapiens, Plasmacytoid dendritic cell, pDC, CpG ODN 2395 Type C, 18 h
  pIC50: 6.98
PI3K α
  pIC50: 5.12
[9]
  Inhibition of kinases in the panel: impaired Hck and PAK3 activity
B cell/PBMC co-culture
  B cell proliferation and IgG secretion, IL-17A, IL-2 and TNFα release: significantly and dose-dependently inhibited
  IL-6 levels: no effect
NZB/W F1 mice; half daily dose given twice daily, early intervention
  Proteinuria progression / disease severity: reduces disease severity; also recorded: Equivalent results
NZB/W F1 mice; throughout the studies, data not shown
  Drug-related body weight loss: no drug-related body weight loss
[10]
  Predicted human half-life / dosing frequency: predicted to require twice daily dosing
pAkt in Ramos B cells
  pIC50: 7.24
